Assay results published in PMC4567266 (PLoS ONE, 2015).
One block for each compound: values may come before it.

Legend:
Type in all cases: cell-based
[1] = system: THP-1 (a human monocytic leukemia cell line); experiment: Cell proliferation assay (WST-8), THP-1; details: for IC50: DMSO less than 1%
Description: (§1) We used THP-1 (a human monocytic leukemia cell line), L929 (a mouse fibroblast cell line), RAW264.7 (a mouse macrophage cell line), and mouse bone marrow-derived macrophages cultured in a flask or plate at 37°C, under a humidified atmosphere of 5% CO2 in air. THP-1 and L929 were obtained from Japan Health Science Foundation. RAW264.7 was purchased from DS Pharma Biomedical Co., Ltd. These cells were cultured in RPMI1640 + 10% FCS consisting of RPMI1640 [+] L-glutamine (Gibco) supplemented with antibiotics (penicillin and streptomycin; Gibco) and 10% fetal calf serum (FCS; Biowest). In cell proliferation assays, they were cultured in flat-bottomed 96-well plates (Corning) in 100 μl/well at a concentration of 1 x 10^5/ml with or without test samples. In the case of mouse peritoneal cells, we employed 1 x 10^6/ml as a cell concentration. After finishing the culture, we added 10 μl of a coloring reagent, WST-8 (Kishida Chemical Co.), which converts to water-soluble colored formazan by the action of a mitochondrial enzyme. Cells were additionally incubated with WST-8 for 3 h and the coloring reaction was stopped by adding 10 μl of 0.1% sodium dodecyl sulfate (SDS) solution. The absorbance of each well was then measured at 450 nm with a Multiskan Ascent plate reader (Labsystems). In principle, we performed cell proliferation assays in duplicate. Half-maximal (50%) inhibitory concentration (IC50) of each test sample was calculated according to the reported formula [15].
(§2) We examined the inhibitory activities of food constituents in cell proliferation assays. Test compounds used in the assays were as follows: curcumin (Wako or Sigma-Aldrich), zerumbone (Wako), genistein (Sigma-Aldrich), chalcone (Wako), corosolic acid (Wako), carnosol (Wako), ursolic acid (Wako), epigallocatechin (Sigma-Aldrich), isoflavone (Wako), apigenin (Wako), chrysin (Wako), flavanone (Wako), resveratrol (Wako), flavone (Wako), quercetin (Wako), daidzein (Wako), and clodronate (Sigma-Aldrich). These compounds were firstly dissolved with dimethyl sulfoxide (DMSO; Wako) and then appropriately diluted with RPMI1640 + 10% FCS to apply the assays. The final concentration of DMSO was adjusted not to exceed 1% at most in cell cultures.

[2] = system: L929 (a mouse fibroblast cell line); experiment: Cell proliferation assay (WST-8), L929; details: for IC50: means ± range (n = 2) or standard deviation (n > 2), DMSO less than 1%
Description: as §1, §2

[3] = system: mouse bone marrow-derived macrophages; experiment: Cell proliferation assay (WST-8), mouse bone marrow-derived macrophages; details: for IC50: means ± range (n = 2) or standard deviation (n > 2), DMSO less than 1%
Description: as §1, §2

[4] = system: RAW264.7 (a mouse macrophage cell line); experiment: Cell proliferation assay (WST-8), RAW264.7; details: cultured for 3 days
Description: as §1, with “In the case of mouse peritoneal cells, we employed 1 x 10^6/ml as a cell concentration. After finishing the culture, we added 10 μl of a coloring reagent, WST-8 (Kishida Chemical Co.), which converts to water-soluble colored formazan by the action of a mitochondrial enzyme. Cells were additionally incubated with WST-8 for 3 h and the coloring reaction was stopped by adding 10 μl of 0.1% sodium dodecyl sulfate (SDS) solution.” left out, “In principle, we performed cell proliferation assays in duplicate.” left out
After culturing, they were incubated with WST-8 for 3 h to assess viable cells in the culture. Resultant coloring reaction by WST-8 was measured with a plate-reader at the absorbance of 450 nm. In the vertical axis, the absorbance of only the medium was defined as 0%. Symbols in the Figure represent the percentage of absorbance with curucmin or liposomes to that without the test samples. […]

[5] = Homo sapiens, THP-1, means ± range (n = 2) or standard deviation (n > 2)
[6] = means ± range (n = 2) or standard deviation (n > 2)

SMILES: O=c1cc(-c2ccccc2)oc2cc(O)cc(O)c12 [Chrysine, chrysin]
- IC50 [1, 5]: 46.8 ± 2.8 µM
- IC50 ([2]; Mus musculus, L929): 76.3 ± 11 µM
- IC50 ([3]; Mus musculus, Macrophage): 58.2 µM

SMILES: O=C1CC(c2ccccc2)Oc2ccccc21 (stereo not drawn) [Flavanone, flavanone]
- IC50 [1, 6]: 55.1 ± 10.9 µM
- IC50 [2]: 211 ± 29.6 µM
- IC50 [3]: 225 ± 66.1 µM

SMILES: O=c1c(-c2ccc(O)cc2)coc2cc(O)ccc12 [Daidzein, daidzein]
- IC50 [1, 5]: > 400 µM
- IC50 ([2]; Mus musculus, L929): 220 ± 57.9 µM
- IC50 ([3]; Mus musculus, Macrophage): 65.1 ± 33.5 µM

SMILES: O=c1c(-c2ccccc2)coc2ccccc12 [Isoflavone, isoflavone]
- IC50 [1, 5]: 37.6 ± 11.6 µM
- IC50 ([2]; Mus musculus, L929): 65.5 ± 3.6 µM
- IC50 ([3]; Mus musculus, Macrophage): 106 ± 7.8 µM

SMILES: Oc1cc(O)c2c(c1)O[C@H](c1cc(O)c(O)c(O)c1)[C@H](O)C2 [Epigallocatechin, epigallocatechin]
- IC50 [1, 5]: 37 ± 29.6 µM
- IC50 ([2]; Mus musculus, L929): 40.1 ± 3.7 µM
- IC50 ([3]; Mus musculus, Macrophage): 157 ± 19.9 µM

SMILES: O=c1cc(-c2ccccc2)oc2ccccc12 [Flavone, flavone]
- IC50 [1, 5]: 86.9 ± 4.1 µM
- IC50 ([2]; Mus musculus, L929): 34.5 ± 3.4 µM
- IC50 ([3]; Mus musculus, Macrophage): 180 µM

SMILES: O=c1c(-c2ccc(O)cc2)coc2cc(O)cc(O)c12 [Genistein, genistein]
- IC50 [1, 5]: < 30 µM
- IC50 [1, 6]: 16 ± 6.1 µM
- IC50 ([2]; Mus musculus, L929): 28.2 ± 7.5 µM
- IC50 ([3]; Mus musculus, Macrophage): 29 ± 21.5 µM

SMILES: O=P(O)(O)C(Cl)(Cl)P(=O)(O)O [Clodronate, clodronate, reference compound]
- Inhibition of THP-1 cell proliferation (in words) [1]: weaker activity
- IC50 [1, 5]: > 400 µM
- Inhibition of L929 cell proliferation (in words) [2]: weaker activity
- IC50 ([2]; Mus musculus, L929): 336 ± 54.9 µM
- Inhibition of mouse bone marrow-derived macrophage proliferation (in words) [3]: comparable strong activity
- IC50 ([3]; Mus musculus, Macrophage): 25.7 ± 15.6 µM

SMILES: O=c1cc(-c2ccc(O)cc2)oc2cc(O)cc(O)c12 [Apigenin, apigenin]
- IC50 [1, 5]: 37.9 ± 3.9 µM
- IC50 ([2]; Mus musculus, L929): 46.4 ± 3.3 µM
- IC50 ([3]; Mus musculus, Macrophage): 70 ± 19.8 µM

SMILES: Oc1ccc(/C=C/c2cc(O)cc(O)c2)cc1 [Resveratrol, resveratrol]
- IC50 [1, 5]: 64.6 ± 8.5 µM
- IC50 ([2]; Mus musculus, L929): 84.8 ± 29.1 µM
- IC50 ([3]; Mus musculus, Macrophage): 77.2 ± 13 µM

The next lines start with results.

- IC50 [1, 5]: < 30 µM
- IC50 [1, 6]: 16 ± 0.5 µM
SMILES: C/C1=C\CC(C)(C)/C=C/C(=O)/C(C)=C/CC1 [Zerumbone, zerumbone]
- IC50 ([2]; Mus musculus, L929): 30.4 ± 0.1 µM
- IC50 ([3]; Mus musculus, Macrophage): 32.1 µM

- IC50 [1, 6]: 13 ± 3.2 µM
- IC50 ([1]; means ± range (n = 2) or standard deviation (n > 2), listed as curcumin): < 30 µM
SMILES: COc1cc(/C=C/C(=O)CC(=O)/C=C/c2ccc(O)c(OC)c2)ccc1O [Curcumin, diferuloylmethane]
- Inhibition of THP-1 cell proliferation (in words) [1]: dose-dependent inhibition
- IC50 ([2]; Mus musculus, L929): 22.8 ± 10.8 µM
- Inhibition of RAW264.7 cell proliferation (in words) [4]: dose-dependent inhibition
- IC50 ([3]; Mus musculus, Macrophage): 22.4 ± 3.6 µM

- IC50 [1, 5]: < 30 µM
- IC50 [1, 6]: 20.5 ± 2.7 µM
SMILES: CC(C)c1cc2c(c(O)c1O)[C@@]13CCCC(C)(C)[C@@H]1C[C@@H]2OC3=O [Carnosol, carnosol]
- IC50 ([2]; Mus musculus, L929): 50.1 ± 2.6 µM
- IC50 ([3]; Mus musculus, Macrophage): 63.8 ± 5.5 µM

- IC50 [1, 5]: < 30 µM
- IC50 [1, 6]: 24.6 ± 3.4 µM
SMILES: C[C@H]1[C@H](C)CC[C@]2(C(=O)O)CC[C@]3(C)C(=CC[C@@H]4[C@@]5(C)CC[C@H](O)C(C)(C)[C@@H]5CC[C@]43C)[C@H]12 [Ursolic acid, ursolic acid]
- IC50 ([2]; Mus musculus, L929): 30.7 ± 0.8 µM
- IC50 ([3]; Mus musculus, Macrophage): 16.3 ± 4.5 µM

- IC50 [1, 5]: < 30 µM
- IC50 [1, 6]: 18.2 ± 0.2 µM
SMILES: C[C@H]1[C@H](C)CC[C@]2(C(=O)O)CC[C@]3(C)C(=CC[C@@H]4[C@@]5(C)C[C@@H](O)[C@H](O)C(C)(C)[C@@H]5CC[C@]43C)[C@H]12 [Corosolic acid, corosolic acid]
- IC50 ([2]; Mus musculus, L929): 17.7 ± 0.2 µM
- IC50 ([3]; Mus musculus, Macrophage): 19.6 ± 0.6 µM

- IC50 [1, 5]: < 30 µM
- IC50 [1, 6]: 17.4 ± 1.8 µM
SMILES: O=C(/C=C/c1ccccc1)c1ccccc1 [Chalcone, chalcone]
- IC50 ([2]; Mus musculus, L929): 69.5 ± 1.2 µM
- IC50 ([3]; Mus musculus, Macrophage): 104 µM

- IC50 [1, 5]: 125 ± 24.1 µM
SMILES: O=c1c(O)c(-c2ccc(O)c(O)c2)oc2cc(O)cc(O)c12 [Quercetin, quercetin]
- IC50 ([2]; Mus musculus, L929): 117 ± 32.5 µM
- IC50 ([3]; Mus musculus, Macrophage): 126 ± 83.4 µM
